Experimental data: ChEMBL document CHEMBL3872247, “Discovery of dual positive allosteric modulators (PAMs) of the metabotropic glutamate 2 receptor and CysLT1 antagonists for treating migraine headache” (Bioorg Med Chem Lett, 2017)

Columns and labels:
[1] = Ratio of Cmax in rat to EC50 for human mGlu2 receptor expressed in hamster AV12 cells expressing EAAT1
[2] = biological target: T1, Cysteinyl leukotriene receptor 1 (Homo sapiens, UniProt Q9Y271); test: Antagonist activity at human CysLT1 receptor expressed in Syrian hamster AV12-664 cells assessed as decrease in LTD4-induced intracellular calcium level pretreated followed by LTD4 addition by fluo-3 dye based FLIPR assay; assay type: functional, cell-based
T1 sequence (Q9Y271 whole entry): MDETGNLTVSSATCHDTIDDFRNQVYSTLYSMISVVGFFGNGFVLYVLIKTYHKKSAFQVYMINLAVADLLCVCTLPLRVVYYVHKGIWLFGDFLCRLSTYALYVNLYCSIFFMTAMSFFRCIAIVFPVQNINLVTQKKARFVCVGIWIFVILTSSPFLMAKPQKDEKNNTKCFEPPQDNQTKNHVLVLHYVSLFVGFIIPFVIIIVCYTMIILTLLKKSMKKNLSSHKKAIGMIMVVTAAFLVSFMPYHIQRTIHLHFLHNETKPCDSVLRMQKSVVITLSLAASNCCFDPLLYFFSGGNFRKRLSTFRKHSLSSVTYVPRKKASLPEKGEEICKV

[3] = biological target: T2, Metabotropic glutamate receptor 1 (Homo sapiens, UniProt Q13255); test: Agonist activity at recombinant human mGlu1 expressed in hamster AV12 cells expressing EAAT1 assessed as increase in intracellular calcium level measured after 24 hrs by FLIPR assay; assay type: functional, cell-based
[4] = biological target: Metabotropic glutamate receptor 8 (Homo sapiens) (UniProt O00222); test: Agonist activity at recombinant human mGlu8 expressed in hamster AV12 cells expressing EAAT1 assessed as increase in intracellular Ca2+ level at 30 uM after 24 hrs by FLIPR assay; assay type: functional, cell-based
[5] = Half life in rat at 1 mg/kg, iv; assay type: ADME, organism-based; conditions: in vivo
[6] = biological target: 5-hydroxytryptamine receptor 6 (Homo sapiens, UniProt P50406); test: Displacement of [3H]LSD from human 5HT6 receptor expressed in CHO cells after 120 mins by scintillation counting method; assay type: cell-based
[7] = biological target: Muscarinic acetylcholine receptor (Rattus norvegicus) (UniProt P08482+P08483+P08485+P08911+P10980); test: Displacement of [3H]QNB from non-selective muscarinic receptor in rat cerebral cortex at 10 uM measured after 120 mins by scintillation counting method
Cytochrome P450 2D6 = Cytochrome P450 2D6 (Homo sapiens, UniProt P10635); test: Inhibition of CYP2D6 (unknown origin); assay type: ADME
Rattus norvegicus [8] = organism: Rattus norvegicus; test: Displacement of [3H]GABA from non-selective GABA channel in rat cerebral cortex at 10 uM measured after 60 mins by scintillation counting method
[9] = biological target: T2, Metabotropic glutamate receptor 1; test: Positive allosteric modulation of recombinant human mGlu1 expressed in hamster AV12 cells expressing EAAT1 assessed as potentiation of glutamate-induced intracellular Ca2+ level measured after 24 hrs by FLIPR assay; assay type: functional, cell-based
[10] = biological target: T3, Metabotropic glutamate receptor 3 (Homo sapiens, UniProt Q14832); test: Agonist activity at recombinant human mGlu3 expressed in hamster AV12 cells expressing EAAT1 assessed as increase in intracellular calcium level measured after 24 hrs by FLIPR assay; assay type: functional, cell-based
[11] = Ratio of Cmax in rat to EC50 for human CysLT1 expressed in Syrian hamster AV12-664 cells
Rattus norvegicus [12] = organism: Rattus norvegicus; test: Displacement of [3H]flunitrazepam from Central-type benzodiazepine receptor in rat cerebral cortex at 10 uM measured after 60 mins by scintillation counting method
[13] = biological target: T4, Metabotropic glutamate receptor 2 (Homo sapiens, UniProt Q14416); test: Positive allosteric modulation of recombinant human mGlu2 receptor expressed in hamster AV12 cells expressing EAAT1 assessed as potentiation of glutamate-induced intracellular calcium level measured after 24 to 48 hrs by FLIPR assay; assay type: functional, cell-based
[14] = Clearance in rat at 1 mg/kg, iv; assay type: ADME, organism-based; conditions: in vivo
[15] = biological target: T4, Metabotropic glutamate receptor 2; test: Agonist activity at recombinant human mGlu2 receptor expressed in hamster AV12 cells expressing EAAT1 assessed as increase in intracellular calcium level measured after 24 to 48 hrs by FLIPR assay; assay type: functional, cell-based
[16] = biological target: T3, Metabotropic glutamate receptor 3; test: Positive allosteric modulation of recombinant human mGlu3 expressed in hamster AV12 cells expressing EAAT1 assessed as potentiation of glutamate-induced intracellular Ca2+ level measured after 24 hrs by FLIPR assay; assay type: functional, cell-based
[17] = biological target: T2, Metabotropic glutamate receptor 1; test: Antagonist activity at recombinant human mGlu1 receptor expressed in hamster AV12 cells expressing EAAT1 assessed as inhibition of glutamate-induced intracellular Ca2+ level measured after 24 hrs by FLIPR assay; assay type: functional, cell-based
[18] = biological target: T5, Metabotropic glutamate receptor 5 (Homo sapiens, UniProt P41594); test: Positive allosteric modulation of recombinant human mGlu5 expressed in hamster AV12 cells expressing EAAT1 assessed as potentiation of glutamate-induced intracellular Ca2+ level measured after 24 hrs by FLIPR assay; assay type: functional, cell-based
[19] = biological target: T5, Metabotropic glutamate receptor 5; test: Antagonist activity at recombinant human mGlu5 receptor expressed in hamster AV12 cells expressing EAAT1 assessed as inhibition of glutamate-induced intracellular Ca2+ level measured after 24 hrs by FLIPR assay; assay type: functional, cell-based
[20] = biological target: Adrenergic receptor alpha-1 (Rattus norvegicus) (UniProt P15823+P23944+P43140); test: Displacement of [3H]prazosin from non-selective alpha1 adrenergic receptor in rat brain cortex at 10 uM measured after 60 mins by scintillation counting method; assay type: tissue-based
[21] = biological target: Adenosine receptor A1 (Homo sapiens) (UniProt P30542); test: Displacement of [3H]DPCPX from human adenosine A1 receptor at 10 uM measured after 60 mins by scintillation counting method
[22] = Half life in dog at 0.5 mg/kg, iv; assay type: ADME, organism-based, Canis lupus familiaris; conditions: in vivo
[23] = Ratio of drug level in brain to plasma in rat at 15 mg/kg, po; assay type: ADME, organism-based
[24] = biological target: 5-hydroxytryptamine receptor 1F (Homo sapiens, UniProt P30939); test: Activity at human 5HT1F receptor
[25] = biological target: 5-hydroxytryptamine receptor 2B (Homo sapiens, UniProt P41595); test: Activity at human 5T2B receptor
Rattus norvegicus [26] = organism: Rattus norvegicus; test: Displacement of [3H]D888 from L-type calcium channel verapamil binding site in rat cerebral cortex at 10 uM measured after 120 mins by scintillation counting method
Rattus norvegicus [27] = test: Decrease in plasma protein extravasation in fasted Harlan Sprague-Dawley rat model of migraine compound administered via oral gavage 1 hr prior to electrical stimulation of trigeminal ganglion measured after 15 mins by FITC-BSA based fluorescence assay; assay type: functional
[28] = biological target: Metabotropic glutamate receptor 8 (Homo sapiens) (UniProt O00222); test: Positive allosteric modulation of recombinant human mGlu8 expressed in hamster AV12 cells expressing EAAT1 assessed as potentiation of glutamate-induced intracellular Ca2+ level at 20 uM after 24 hrs by FLIPR assay; assay type: functional, cell-based
hERG (KCNH2) = hERG (KCNH2) (Homo sapiens, UniProt Q12809); test: Displacement of [3H]dofetilide from recombinant human ERG expressed in HEK293 cells measured after 60 mins by scintillation counting method; assay type: cell-based; conditions: HEK293 cells expressing recombinant human ERG, probe [3H]dofetilide
[29] = Oral bioavailability in dog at 1 mg/kg; assay type: ADME, organism-based, Canis lupus familiaris; conditions: in vivo
[30] = Cmax in dog at 1 mg/kg, po; assay type: ADME, organism-based, Canis lupus familiaris; parameters: dose 1 mg/kg, route oral; conditions: in vivo

T2 sequence (Q13255 whole entry): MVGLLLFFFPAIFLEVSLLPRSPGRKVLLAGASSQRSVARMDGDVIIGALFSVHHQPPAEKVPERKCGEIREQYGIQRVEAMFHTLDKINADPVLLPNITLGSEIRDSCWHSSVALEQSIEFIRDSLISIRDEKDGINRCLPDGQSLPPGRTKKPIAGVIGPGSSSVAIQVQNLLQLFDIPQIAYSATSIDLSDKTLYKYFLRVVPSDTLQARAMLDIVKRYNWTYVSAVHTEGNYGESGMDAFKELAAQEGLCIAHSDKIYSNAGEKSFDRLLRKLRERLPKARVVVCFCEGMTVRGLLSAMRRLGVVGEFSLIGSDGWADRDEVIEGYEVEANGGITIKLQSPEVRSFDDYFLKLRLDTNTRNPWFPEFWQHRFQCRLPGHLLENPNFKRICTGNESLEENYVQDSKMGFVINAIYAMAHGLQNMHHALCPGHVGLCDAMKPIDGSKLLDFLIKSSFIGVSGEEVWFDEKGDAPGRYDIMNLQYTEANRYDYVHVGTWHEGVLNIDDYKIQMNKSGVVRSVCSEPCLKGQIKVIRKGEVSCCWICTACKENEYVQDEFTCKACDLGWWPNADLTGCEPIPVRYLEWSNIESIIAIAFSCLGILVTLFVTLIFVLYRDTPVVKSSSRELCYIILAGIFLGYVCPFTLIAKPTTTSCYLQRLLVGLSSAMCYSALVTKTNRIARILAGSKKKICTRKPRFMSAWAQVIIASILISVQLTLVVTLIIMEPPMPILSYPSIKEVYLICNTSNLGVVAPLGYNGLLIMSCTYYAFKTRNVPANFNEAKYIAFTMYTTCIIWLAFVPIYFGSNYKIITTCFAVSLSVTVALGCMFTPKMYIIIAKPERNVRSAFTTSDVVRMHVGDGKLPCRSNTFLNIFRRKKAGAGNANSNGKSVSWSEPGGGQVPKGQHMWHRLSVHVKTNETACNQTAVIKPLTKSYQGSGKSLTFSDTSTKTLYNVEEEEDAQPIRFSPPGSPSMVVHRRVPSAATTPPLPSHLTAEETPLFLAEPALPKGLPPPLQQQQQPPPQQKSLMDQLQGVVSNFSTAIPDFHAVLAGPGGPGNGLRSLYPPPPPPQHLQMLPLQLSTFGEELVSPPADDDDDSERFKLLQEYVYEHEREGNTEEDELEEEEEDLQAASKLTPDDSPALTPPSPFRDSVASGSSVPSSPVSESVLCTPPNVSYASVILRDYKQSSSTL
T5 sequence (P41594 whole entry): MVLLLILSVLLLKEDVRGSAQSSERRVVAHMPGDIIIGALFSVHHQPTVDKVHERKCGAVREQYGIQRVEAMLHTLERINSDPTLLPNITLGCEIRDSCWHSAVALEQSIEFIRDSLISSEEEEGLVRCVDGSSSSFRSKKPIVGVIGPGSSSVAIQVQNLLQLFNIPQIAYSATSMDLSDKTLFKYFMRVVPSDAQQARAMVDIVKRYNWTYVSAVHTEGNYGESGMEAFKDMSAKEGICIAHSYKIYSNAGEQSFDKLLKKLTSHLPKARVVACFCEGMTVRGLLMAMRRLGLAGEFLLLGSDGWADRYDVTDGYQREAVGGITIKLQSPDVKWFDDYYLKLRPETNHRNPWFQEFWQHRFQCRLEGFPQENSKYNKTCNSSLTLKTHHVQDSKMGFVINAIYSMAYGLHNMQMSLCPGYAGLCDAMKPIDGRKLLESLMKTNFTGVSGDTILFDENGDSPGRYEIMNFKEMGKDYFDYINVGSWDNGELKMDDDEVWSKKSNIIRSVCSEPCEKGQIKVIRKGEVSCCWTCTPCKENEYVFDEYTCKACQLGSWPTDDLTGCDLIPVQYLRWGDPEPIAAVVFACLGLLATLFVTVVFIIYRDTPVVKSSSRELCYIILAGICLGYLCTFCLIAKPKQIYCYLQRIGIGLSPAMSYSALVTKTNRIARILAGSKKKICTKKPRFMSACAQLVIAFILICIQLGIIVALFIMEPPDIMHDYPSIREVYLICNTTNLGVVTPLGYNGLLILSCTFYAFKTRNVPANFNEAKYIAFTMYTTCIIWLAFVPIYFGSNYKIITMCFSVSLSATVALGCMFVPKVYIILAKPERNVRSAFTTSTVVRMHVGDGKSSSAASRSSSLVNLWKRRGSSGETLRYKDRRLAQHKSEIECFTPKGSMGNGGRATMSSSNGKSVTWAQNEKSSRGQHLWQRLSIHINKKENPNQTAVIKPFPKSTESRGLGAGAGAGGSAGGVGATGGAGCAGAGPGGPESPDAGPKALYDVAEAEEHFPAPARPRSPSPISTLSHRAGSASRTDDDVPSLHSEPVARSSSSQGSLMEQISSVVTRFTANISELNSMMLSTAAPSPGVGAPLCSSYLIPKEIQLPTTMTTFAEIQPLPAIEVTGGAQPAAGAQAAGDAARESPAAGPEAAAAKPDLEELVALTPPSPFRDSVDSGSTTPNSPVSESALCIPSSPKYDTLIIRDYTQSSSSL
T3 sequence (Q14832 whole entry): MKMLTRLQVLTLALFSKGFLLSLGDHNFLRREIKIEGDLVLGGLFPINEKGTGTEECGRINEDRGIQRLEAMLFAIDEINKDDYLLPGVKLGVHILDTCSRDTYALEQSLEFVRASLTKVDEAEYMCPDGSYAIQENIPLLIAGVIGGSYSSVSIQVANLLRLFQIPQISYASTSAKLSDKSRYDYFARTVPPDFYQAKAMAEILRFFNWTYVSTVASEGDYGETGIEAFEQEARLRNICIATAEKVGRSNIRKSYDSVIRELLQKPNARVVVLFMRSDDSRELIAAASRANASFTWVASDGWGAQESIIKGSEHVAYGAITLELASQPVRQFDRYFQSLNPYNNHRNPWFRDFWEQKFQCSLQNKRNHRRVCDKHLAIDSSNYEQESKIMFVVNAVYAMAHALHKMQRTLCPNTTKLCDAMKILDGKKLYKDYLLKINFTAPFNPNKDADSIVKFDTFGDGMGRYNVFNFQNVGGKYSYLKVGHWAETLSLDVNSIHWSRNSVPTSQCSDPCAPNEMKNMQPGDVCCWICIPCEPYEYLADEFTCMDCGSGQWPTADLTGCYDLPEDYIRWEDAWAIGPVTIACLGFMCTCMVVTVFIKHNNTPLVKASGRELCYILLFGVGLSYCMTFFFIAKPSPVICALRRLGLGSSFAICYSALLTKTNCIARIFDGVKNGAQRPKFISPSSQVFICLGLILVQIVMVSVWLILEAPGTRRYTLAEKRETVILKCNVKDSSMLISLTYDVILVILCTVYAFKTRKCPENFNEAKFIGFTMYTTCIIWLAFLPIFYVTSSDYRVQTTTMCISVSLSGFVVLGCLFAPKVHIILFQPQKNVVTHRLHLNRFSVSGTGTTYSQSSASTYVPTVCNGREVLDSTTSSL
Chain of Metabotropic glutamate receptor 8 (Homo sapiens) (O00222 whole entry): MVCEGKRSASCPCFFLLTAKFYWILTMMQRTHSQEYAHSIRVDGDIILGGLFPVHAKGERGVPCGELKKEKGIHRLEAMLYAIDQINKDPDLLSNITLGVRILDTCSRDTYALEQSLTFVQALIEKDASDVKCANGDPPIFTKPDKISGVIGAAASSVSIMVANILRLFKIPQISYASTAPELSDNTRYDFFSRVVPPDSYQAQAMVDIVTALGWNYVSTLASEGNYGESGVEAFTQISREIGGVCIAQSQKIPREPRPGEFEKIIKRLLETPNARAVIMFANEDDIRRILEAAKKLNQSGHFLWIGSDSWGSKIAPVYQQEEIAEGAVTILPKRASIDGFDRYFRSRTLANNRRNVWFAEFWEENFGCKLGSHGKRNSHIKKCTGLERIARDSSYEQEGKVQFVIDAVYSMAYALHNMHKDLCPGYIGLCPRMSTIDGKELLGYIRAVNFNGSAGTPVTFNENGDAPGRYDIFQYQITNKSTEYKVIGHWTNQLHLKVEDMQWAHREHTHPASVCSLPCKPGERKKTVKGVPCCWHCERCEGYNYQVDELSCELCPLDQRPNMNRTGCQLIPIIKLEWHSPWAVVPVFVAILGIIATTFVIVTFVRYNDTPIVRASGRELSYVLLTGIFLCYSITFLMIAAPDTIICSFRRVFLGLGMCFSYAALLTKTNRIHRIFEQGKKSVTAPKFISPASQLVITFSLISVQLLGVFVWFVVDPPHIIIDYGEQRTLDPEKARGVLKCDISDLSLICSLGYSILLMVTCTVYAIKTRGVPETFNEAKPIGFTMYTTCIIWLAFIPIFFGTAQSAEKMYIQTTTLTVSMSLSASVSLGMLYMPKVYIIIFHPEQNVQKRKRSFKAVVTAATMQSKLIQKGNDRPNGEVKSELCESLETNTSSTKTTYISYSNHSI
T4 sequence (Q14416 whole entry): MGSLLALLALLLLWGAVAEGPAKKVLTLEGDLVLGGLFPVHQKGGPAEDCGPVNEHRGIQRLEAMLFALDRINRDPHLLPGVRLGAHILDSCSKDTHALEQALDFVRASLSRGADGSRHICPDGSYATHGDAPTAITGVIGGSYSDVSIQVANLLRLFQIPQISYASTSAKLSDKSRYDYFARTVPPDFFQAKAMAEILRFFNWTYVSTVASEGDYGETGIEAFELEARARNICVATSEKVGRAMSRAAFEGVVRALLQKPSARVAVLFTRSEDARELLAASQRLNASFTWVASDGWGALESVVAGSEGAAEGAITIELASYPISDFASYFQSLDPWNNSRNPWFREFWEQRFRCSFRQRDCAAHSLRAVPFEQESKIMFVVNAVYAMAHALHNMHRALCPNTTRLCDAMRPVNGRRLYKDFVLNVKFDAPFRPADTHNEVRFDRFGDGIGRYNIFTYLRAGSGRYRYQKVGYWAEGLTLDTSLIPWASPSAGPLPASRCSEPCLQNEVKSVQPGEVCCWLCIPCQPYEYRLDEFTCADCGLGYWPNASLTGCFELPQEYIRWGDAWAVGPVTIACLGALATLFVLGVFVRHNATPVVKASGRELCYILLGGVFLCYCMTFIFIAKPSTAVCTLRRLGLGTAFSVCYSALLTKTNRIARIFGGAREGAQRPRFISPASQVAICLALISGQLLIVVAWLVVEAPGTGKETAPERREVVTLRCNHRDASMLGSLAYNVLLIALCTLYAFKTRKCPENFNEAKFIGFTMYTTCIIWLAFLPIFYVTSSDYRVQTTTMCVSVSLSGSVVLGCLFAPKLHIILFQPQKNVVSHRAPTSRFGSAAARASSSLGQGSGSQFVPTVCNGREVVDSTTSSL

Structure (SMILES): CC(=O)c1ccc(OCc2ccc(Oc3cc(-c4nn[nH]n4)ccn3)cc2)c(C)c1O
- Ratio [1]: 0.65
- IC50 [2]: 0.0241 µM
- EC50 [3]: > 25 µM
- Activity [4]: < 20%
- half-life [5]: 2 h
- Ki [6]: > 1.79 µM
- inhibition [7]: 22.9%
- INH (Cytochrome P450 2D6): > 40 µM
- inhibition (Rattus norvegicus [8]): -6%
- EC50 [9]: > 12.5 µM
- EC50 [10]: > 25 µM
- Ratio [11]: 7.8
- inhibition (Rattus norvegicus [12]): 5.2%
- EC50 [13]: 0.201 to 0.287 µM
- clearance [14]: 11 mL/min/kg
- EC50 [15]: > 25 µM
- EC50 [16]: > 12.5 µM
- IC50 [17]: > 8 µM
- EC50 [18]: > 12.5 µM
- IC50 [19]: > 12.5 µM
- inhibition [20]: 5.3%
- inhibition [21]: -4.5%
- half-life [22]: 2 h
- BPR [23]: < 1%
- Ki [24]: > 2.97 µM
- Ki [25]: > 3.3 µM
- inhibition (Rattus norvegicus [26]): 63.1%
- Activity (Rattus norvegicus [27]): Dose-dependent effect
- ID100 (Rattus norvegicus [27]): 1 µg/kg
- Activity [28]: < 20%
- inhibition at 1 h (hERG (KCNH2)): < 15%
- bioavailability [29]: 32%
- Cmax [30]: 143 ng/mL
